pIC50: −log10 of the molar value.
Experiments:
[1] = tested on: off-target receptors; assay: In vitro safety testing: off-target receptors; format: binding
[2] = Chronic administration toxicity in rats; format: in vivo; conditions: administered chronically to rats
[3] = biological target: T1, CYP17 (Homo sapiens, UniProt P05093); assay: Inhibition of lyase activity (CYP17); format: biochemical; conditions: CYP17 expressed by transfected E. coli; radiolabelled 17α-hydroxypregnenolone substrate
T1 construct: made in house; host or cells: E. coli
T1 sequence (P05093 1-508): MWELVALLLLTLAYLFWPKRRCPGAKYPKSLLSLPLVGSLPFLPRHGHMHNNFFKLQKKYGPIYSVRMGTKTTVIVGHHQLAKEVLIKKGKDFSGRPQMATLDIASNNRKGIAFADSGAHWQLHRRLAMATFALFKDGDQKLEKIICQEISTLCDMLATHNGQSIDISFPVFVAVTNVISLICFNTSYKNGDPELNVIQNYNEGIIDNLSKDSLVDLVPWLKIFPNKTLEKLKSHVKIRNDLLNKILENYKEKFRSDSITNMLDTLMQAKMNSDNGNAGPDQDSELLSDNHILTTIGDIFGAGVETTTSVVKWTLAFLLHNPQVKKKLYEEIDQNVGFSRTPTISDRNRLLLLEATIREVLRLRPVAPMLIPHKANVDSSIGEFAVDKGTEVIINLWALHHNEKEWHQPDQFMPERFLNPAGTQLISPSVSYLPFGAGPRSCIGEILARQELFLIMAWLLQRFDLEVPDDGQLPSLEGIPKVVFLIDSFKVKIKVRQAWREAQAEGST
Procedure: Intact CYP17 expressed by transfected E. coli was isolated and purified as an enzyme source. Radiolabelled 17α-hydroxypregnenolone as the substrate. CYP17 activity was measured by the amount of tritiated acetic acid formed during the cleavage of the C-21 side chain of the substrate.

[4] = tested on: cytochrome P450 systems; assay: In vitro safety testing: cytochrome P450 systems; format: in vitro ADME
[5] = Oral bioavailability (nonclinical); conditions: in vivo
[6] = Nonclinical safety evaluation (cell-based and animal models); conditions: nonclinical data
Text: This is a first-in-man trial of Compound 1 and potential toxic effects in humans are not yet fully known. […] An additional known class effect, apparent mineralocorticoid excess (AME), was not seen in nonclinical studies. This trial has been designed with the adverse nonclinical findings, theoretical MOA, and consideration of known class effect issues in mind. The trial evaluates potential clinical benefit and provides proof of concept while minimizing risk to subjects.

[7] = in vivo; conditions: dog
Text: On an AUC basis the human starting dose is predicted to be 16 times lower than the NOAEL dose in dogs.

[8] = tested on: LAPC-4; assay: Inhibition of testosterone-induced proliferation, LAPC-4; format: cell-based, human; conditions: LAPC-4 stimulated with 1 nM DHT
Procedure: (§1) Human prostate cancer cell lines (LNCaP and LAPC-4) were grown in culture and stimulated with 1 nM dihydrotestosterone (DHT). This concentration of DHT stimulated the proliferation of prostate cancer cells.

[9] = In vitro safety testing: genotoxicity
[10] = tested on: LAPC4 prostate cancer cell tumors; assay: Growth of human prostate cancer xenografts in SCID mice; format: in vivo
Procedure: Xenografts of LAPC4 prostate cancer cell tumors were implanted in SCID mice. […] Tumor size was measured weekly and compared with control mice that received vehicle, Casodex® or castration only.

[11] = tested on: LNCaP; assay: Inhibition of testosterone-induced proliferation, LNCaP; format: cell-based, human; conditions: LNCaP stimulated with 1 nM DHT
Procedure: as §1

[12] = tested on: PSA; assay: Clinical study in chemotherapy naive CRPC: PSA response; format: in vivo, human
Procedure: The primary efficacy endpoint is the percent of subjects with 50% or greater decrease in PSA from baseline to 12 weeks, or PSA nadir (whichever comes first). Frequency and percentage are calculated for each treatment group. The primary analysis is also repeated using the PP Population.
A clinical study was performed according to the protocol of Example 6. Compound (1) was administered to four cohorts, each in a different amount.

C[C@]12CC[C@H](O)CC1=CCC1C2CC[C@]2(C)C(n3cnc4ccccc43)=CCC12 (stereo partly drawn) [Compound (1), 3-β-Hydroxy-17-(1H-benzimidazol-1-yl)androsta-5,16-diene]
interaction with off-target receptors [1]: only at high micromolar concentrations | toxic responses [2]: fails to elicit toxic responses | pIC50 [3]: 6.52 | interference with activity of cytochrome P450 systems known to metabolize many drugs [4]: does not interfere | oral bioavailability [5]: orally bioavailable | only safety signal seen [6]: hepatoxicity | toxicity in cell-based and animal models [6]: minimal toxicity | NOAEL [7]: 150 mg/kg | inhibition of testosterone induced proliferation [8]: dose-dependent inhibition | genotoxicity [9]: does not have genotoxicity | tumor growth ([10]; 50 mg/kg BW SC twice daily, compared with castration): comparable or more pronounced decrease in tumor growth compared to castration | size of androgen dependent human prostate tumors ([10]; SCID mouse models, levels corresponding to human subcutaneous doses of 140, 280, and 560 mg): dramatic reduction | inhibition of testosterone induced proliferation [11]: dose-dependent inhibition | Percentage of Patients With a PSA Response ([12]; Cohort 1, 650 mg/day, 6 patients treated): 67% (4) | Percentage of Patients With a PSA Response ([12]; Cohort 2, 975 mg/day, 6 patients treated): 67% (4) | Percentage of Patients With a PSA Response ([12]; Cohort 3, 1300 mg/day, 6 patients treated): 83% (5) | Percentage of Patients With a PSA Response ([12]; Cohort 4, 1950 mg/day, 7 patients treated): 71% (5)
